Patent US8613927B2, “High affinity human antibodies to human nerve growth factor” (Regeneron Pharmaceuticals, Inc., priority 2007, dated 2013)

Tested on: C57BL/6 male mice
Test: Seltzer model of neuropathic pain, Hargreaves' test
Format: in vivo, mouse
Excerpt: Neuropathic pain. The mouse Seltzer model of neuropathic pain (Malmberg et al. (1998) Pain 76:215-222) was used with C57BL/6 male mice, in which a partial nerve injury was produced by tying a tight ligature with a 7-0 silk suture around approximately ⅓ to ½ the diameter of the sciatic nerve of one single thigh per mouse. Post-surgery, the mice were allowed to recover for at least two days and then they were studied for several weeks post-surgery for thermal hyperalgesia in the Hargreaves' test. Controls were sham-operated mice in which the sciatic nerve was exposed and elevated but not tied. Following surgery, the mice were tested at day […] and at day 7 post-surgery to confirm that the thermal hyperalgesia had developed.
Following the Seltzer surgery, mice were tested at days 5 and 7 post-surgery to confirm that the thermal hyperalgesia had developed.

## IgG1 Control: negative binding control, IgG1 control (AVASTIN®; Genentech, CA)
Table 24, injected Day 7, Day 28
  mean percent change from Hargreaves baseline: −54.1 ± 3.5%
Table 24, injected Day 7, Day 32
  mean percent change from Hargreaves baseline: −41.9 ± 8.3%
Table 24, injected Day 7, Day 35
  mean percent change from Hargreaves baseline: −43.9 ± 6.8%
Table 24, injected Day 7, Day 42
  mean percent change from Hargreaves baseline: −35.0 ± 6.6%
Table 24, injected Day 14, Day 5 after surgery
  mean percent change from Hargreaves baseline: −60.0 ± 4.8%
Table 24, injected Day 14, Day 7
  mean percent change from Hargreaves baseline: −54.4 ± 6.4%
Table 24, injected Day 14, Day 8
  mean percent change from Hargreaves baseline: −55.3 ± 6.1%
Table 24, injected Day 14, Day 10
  mean percent change from Hargreaves baseline: −52.8 ± 7.2%
Table 24, injected Day 14, Day 14
  mean percent change from Hargreaves baseline: −62.1 ± 5.7%
Table 24, injected Day 14, Day 15
  mean percent change from Hargreaves baseline: −63.0 ± 5.8%
Table 24, injected Day 14, Day 17
  mean percent change from Hargreaves baseline: −58.6 ± 5.7%
Table 24, injected Day 14, Day 21
  mean percent change from Hargreaves baseline: −57.1 ± 4.4%
Table 24, injected Day 14, Day 24
  mean percent change from Hargreaves baseline: −49.5 ± 6.6%
Table 24, injected Day 14, Day 28
  mean percent change from Hargreaves baseline: −53.6 ± 5.4%
Table 24, injected Day 14, Day 32
  mean percent change from Hargreaves baseline: −40.9 ± 13.1%
Table 24, injected Day 14, Day 35
  mean percent change from Hargreaves baseline: −42.9 ± 10.3%
Table 24, injected Day 14, Day 39
  mean percent change from Hargreaves baseline: −39.0 ± 11.4%
Table 24, injected Day 14, Day 42
  mean percent change from Hargreaves baseline: −38.1 ± 12.5%
Table 24, injected Day 21, Day 5 after surgery
  mean percent change from Hargreaves baseline: −55.5 ± 5.0%
Table 24, injected Day 21, Day 7
  mean percent change from Hargreaves baseline: −47.2 ± 4.8%
Table 24, injected Day 21, Day 8
  mean percent change from Hargreaves baseline: −47.9 ± 4.7%
Table 24, injected Day 21, Day 10
  mean percent change from Hargreaves baseline: −55.0 ± 6.7%
Table 24, injected Day 21, Day 14
  mean percent change from Hargreaves baseline: −63.8 ± 4.6%
Table 24, injected Day 21, Day 15
  mean percent change from Hargreaves baseline: −54.5 ± 5.0%
Table 24, injected Day 21, Day 17
  mean percent change from Hargreaves baseline: −52.4 ± 5.3%
Table 24, injected Day 21, Day 21
  mean percent change from Hargreaves baseline: −55.8 ± 3.6%
Table 24, injected Day 21, Day 22
  mean percent change from Hargreaves baseline: −50.6 ± 5.3%
Table 24, injected Day 21, Day 24
  mean percent change from Hargreaves baseline: −44.7 ± 5.7%
Table 24, injected Day 21, Day 28
  mean percent change from Hargreaves baseline: −46.0 ± 7.6%
Table 24, injected Day 21, Day 32
  mean percent change from Hargreaves baseline: −32.8 ± 4.8%
Table 24, injected Day 21, Day 35
  mean percent change from Hargreaves baseline: −39.8 ± 4.5%
Table 24, injected Day 21, Day 39
  mean percent change from Hargreaves baseline: −34.6 ± 10.0%
Table 24, injected Day 21, Day 42
  mean percent change from Hargreaves baseline: −33.9 ± 9.9%
Table 25, 50 mg/kg s.c. at day 7, day 5 after surgery
  mean percent change from Hargreaves baseline: −51.2 ± 5.2%
Table 25, 50 mg/kg s.c. at day 7, day 7
  mean percent change from Hargreaves baseline: −47.6 ± 3.9%
Table 25, 50 mg/kg s.c. at day 7, day 9
  mean percent change from Hargreaves baseline: −36.7 ± 14.6%
Table 25, 50 mg/kg s.c. at day 7, day 12
  mean percent change from Hargreaves baseline: −47.2 ± 5.5%
Table 25, 50 mg/kg s.c. at day 7, day 15
  mean percent change from Hargreaves baseline: −46.7 ± 8.5%
Table 25, 50 mg/kg s.c. at day 7, day 19
  mean percent change from Hargreaves baseline: −28.6 ± 7.5%
Table 25, 50 mg/kg s.c. at day 7, day 22
  mean percent change from Hargreaves baseline: −34.9 ± 7.9%
Table 25, 50 mg/kg s.c. at day 7 post-surgery, Baseline
  mean percent change from Hargreaves baseline: 0.0 ± 0.0%
Table 26, 50 mg/kg i.p. at day 7, day 5 after surgery
  mean percent change from Hargreaves baseline: −55.5 ± 3.8%
Table 26, 50 mg/kg i.p. at day 7, day 7
  mean percent change from Hargreaves baseline: −61.6 ± 1.8%
Table 26, 50 mg/kg i.p. at day 7, day 8
  mean percent change from Hargreaves baseline: −59.3 ± 4.0%
Table 26, 50 mg/kg i.p. at day 7, day 9
  mean percent change from Hargreaves baseline: −51.0 ± 4.2%
Table 26, 50 mg/kg i.p. at day 7, day 12
  mean percent change from Hargreaves baseline: −46.5 ± 6.3%
Table 26, 50 mg/kg i.p. at day 7, day 15
  mean percent change from Hargreaves baseline: −43.3 ± 6.6%
Table 26, 50 mg/kg i.p. at day 7 post-surgery, Baseline
  mean percent change from Hargreaves baseline: 0.0 ± 0.0%
